Columns and labels:
Assay type in all cases: cell-based
JeKo-1 cells = experiment: Antiproliferative effect, MTS cell viability assay, JeKo-1 cells; details: Homo sapiens; JeKo-1 mantle cell lymphoma cells; read-out: IC50 (anti-proliferation) JeKO-1 cells
In short: (§1)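 Absorbance at 490 nm of formazan, formed by metabolically active cells from MTS tetrazolium, served as the viability measure after a 72 h treatment across a 0.001–10 μM concentration series plus untreated control.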

Mino cells = experiment: Antiproliferative effect, MTS cell viability assay, Mino cells; details: Homo sapiens, MINO, Mino mantle cell lymphoma cells; read-out: IC50 (anti-proliferation) Mino cells
In short: as §1

BTK = BTK (Homo sapiens, UniProt Q06187); experiment: BTK degradation, DC50 and Dmax of Table 1 (cell line not given); parameters: endogenous in cells; details: for DC50: concentration giving 50% reduction of BTK expression level
Sequence of BTK (Q06187 whole entry): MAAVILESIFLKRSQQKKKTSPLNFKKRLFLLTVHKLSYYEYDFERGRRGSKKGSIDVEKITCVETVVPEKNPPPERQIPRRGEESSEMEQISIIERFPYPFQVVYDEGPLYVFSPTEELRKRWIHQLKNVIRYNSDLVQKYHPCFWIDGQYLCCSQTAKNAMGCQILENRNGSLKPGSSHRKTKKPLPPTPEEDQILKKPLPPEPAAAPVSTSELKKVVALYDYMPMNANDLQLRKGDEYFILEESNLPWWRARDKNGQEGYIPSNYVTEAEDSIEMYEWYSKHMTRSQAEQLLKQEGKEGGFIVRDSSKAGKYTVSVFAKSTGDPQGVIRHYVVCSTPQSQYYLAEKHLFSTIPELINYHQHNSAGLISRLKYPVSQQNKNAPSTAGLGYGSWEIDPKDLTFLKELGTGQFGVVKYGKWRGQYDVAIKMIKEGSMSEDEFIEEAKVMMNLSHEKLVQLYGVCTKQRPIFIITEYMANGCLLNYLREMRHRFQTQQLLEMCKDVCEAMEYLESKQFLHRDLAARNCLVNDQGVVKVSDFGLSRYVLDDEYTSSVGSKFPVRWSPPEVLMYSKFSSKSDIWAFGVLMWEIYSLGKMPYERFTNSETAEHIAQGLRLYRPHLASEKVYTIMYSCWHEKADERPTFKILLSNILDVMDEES

Row | Structure (SMILES) | IC50 (JeKo-1 cells) [nM] | IC50 (Mino cells) [nM] | Dmax (BTK) [%] | DC50 (BTK) [nM]
1 | Nc1ncnc2c1c(-c1ccc(Oc3ccccc3)cc1)nn2[C@@H]1CCCN(CC2CCN(CCN3CCN(c4ccc5c(c4)CN(C4CCC(=O)NC4=O)C5=O)CC3)CC2)C1 (stereo partly drawn) [Compound 134, 3-(5-(4-(2-(4-(((R)-3-(4-amino-3-(4-phenoxyphenyl)-1H-pyrazolo[3,4-d]pyrimidin-1-yl)piperidin-1-yl)methyl)piperidin-1-yl)ethyl)piperazin-1-yl)-1-oxoisoindolin-2-yl)piperidine-2,6-dione] | 1000 to 10000 | 1000 to 10000 | > 75 | 10 to 50
2 | Nc1ncnc2c1c(-c1ccc(Oc3ccccc3)cc1)nn2[C@@H]1CCCN(CC2CCN(CCN3CCC(c4ccc5c(c4)C(=O)N(C4CCC(=O)NC4=O)C5=O)CC3)CC2)C1 (stereo partly drawn) [Compound 135, 5-(1-(2-(4-(((R)-3-(4-amino-3-(4-phenoxyphenyl)-1H-pyrazolo[3,4-d]pyrimidin-1-yl)piperidin-1-yl)methyl)piperidin-1-yl)ethyl)piperidin-4-yl)-2-(2,6-dioxopiperidin-3-yl)isoindoline-1,3-dione] | 1000 to 10000 | < 1000 | > 90 | < 10
3 | Nc1ncnc2c1c(-c1ccc(Oc3ccccc3)cc1)nn2[C@@H]1CCCN(CC2CCN(CCN3CCC(c4ccc5c(c4)CN(C4CCC(=O)NC4=O)C5=O)CC3)CC2)C1 (stereo partly drawn) [Compound 136, 3-(5-(1-(2-(4-(((R)-3-(4-amino-3-(4-phenoxyphenyl)-1H-pyrazolo[3,4-d]pyrimidin-1-yl)piperidin-1-yl)methyl)piperidin-1-yl)ethyl)piperidin-4-yl)-1-oxoisoindolin-2-yl)piperidine-2,6-dione] | 1000 to 10000 | < 1000 | > 75 | < 10
4 | Nc1ncnc2c1c(-c1ccc(Oc3ccccc3)cc1)nn2[C@@H]1CCCN(CC2CCN(CCCN3CCN(c4ccc5c(c4)C(=O)N(C4CCC(=O)NC4=O)C5=O)CC3)CC2)C1 (stereo partly drawn) [Compound 137, 5-(4-(3-(4-(((R)-3-(4-amino-3-(4-phenoxyphenyl)-1H-pyrazolo[3,4-d]pyrimidin-1-yl)piperidin-1-yl)methyl)piperidin-1-yl)propyl)piperazin-1-yl)-2-(2,6-dioxopiperidin-3-yl)isoindoline-1,3-dione] | > 10000 | > 10000 | > 75 | 10 to 50
5 | Nc1ncnc2c1c(-c1ccc(Oc3ccccc3)cc1)nn2[C@@H]1CCCN(CC2CCN(CCCN3CCN(c4ccc5c(c4)CN(C4CCC(=O)NC4=O)C5=O)CC3)CC2)C1 (stereo partly drawn) [Compound 138, 3-(5-(4-(3-(4-(((R)-3-(4-amino-3-(4-phenoxyphenyl)-1H-pyrazolo[3,4-d]pyrimidin-1-yl)piperidin-1-yl)methyl)piperidin-1-yl)propyl)piperazin-1-yl)-1-oxoisoindolin-2-yl)piperidine-2,6-dione] | > 10000 | 1000 to 10000 | > 75 | 10 to 50
6 | Nc1ncnc2c1c(-c1ccc(Oc3ccccc3)cc1)nn2[C@@H]1CCCN(CC2CCN(CCCN3CCC(c4ccc5c(c4)C(=O)N(C4CCC(=O)NC4=O)C5=O)CC3)CC2)C1 (stereo partly drawn) [Compound 139, 5-(1-(3-(4-(((R)-3-(4-amino-3-(4-phenoxyphenyl)-1H-pyrazolo[3,4-d]pyrimidin-1-yl)piperidin-1-yl)methyl)piperidin-1-yl)propyl)piperidin-4-yl)-2-(2,6-dioxopiperidin-3-yl)isoindoline-1,3-dione] | > 10000 | > 10000 | > 75 | 10 to 50
7 | Nc1ncnc2c1c(-c1ccc(Oc3ccccc3)cc1)nn2[C@@H]1CCCN(CC2CCN(CCCN3CCC(c4ccc5c(c4)CN(C4CCC(=O)NC4=O)C5=O)CC3)CC2)C1 (stereo partly drawn) [Compound 140, 3-(5-(1-(3-(4-(((R)-3-(4-amino-3-(4-phenoxyphenyl)-1H-pyrazolo[3,4-d]pyrimidin-1-yl)piperidin-1-yl)methyl)piperidin-1-yl)propyl)piperidin-4-yl)-1-oxoisoindolin-2-yl)piperidine-2,6-dione] | > 10000 | 1000 to 10000 | > 75 | 10 to 50
8 | Nc1ncnc2c1c(-c1ccc(Oc3ccccc3)cc1)nn2[C@@H]1CCCN(CC2CCN(CCCC3CCN(c4ccc5c(c4)C(=O)N(C4CCC(=O)NC4=O)C5=O)CC3)CC2)C1 (stereo partly drawn) [Compound 141, 5-(4-(3-(4-(((R)-3-(4-amino-3-(4-phenoxyphenyl)-1H-pyrazolo[3,4-d]pyrimidin-1-yl)piperidin-1-yl)methyl)piperidin-1-yl)propyl)piperidin-1-yl)-2-(2,6-dioxopiperidin-3-yl)isoindoline-1,3-dione] | 1000 to 10000 | 1000 to 10000 | > 75 | > 50
9 | Nc1ncnc2c1c(-c1ccc(Oc3ccccc3)cc1)nn2[C@@H]1CCCN(CC2CCN(CCCC3CCN(c4ccc5c(c4)CN(C4CCC(=O)NC4=O)C5=O)CC3)CC2)C1 (stereo partly drawn) [Compound 142, 3-(5-(4-(3-(4-(((R)-3-(4-amino-3-(4-phenoxyphenyl)-1H-pyrazolo[3,4-d]pyrimidin-1-yl)piperidin-1-yl)methyl)piperidin-1-yl)propyl)piperidin-1-yl)-1-oxoisoindolin-2-yl)piperidine-2,6-dione] | > 10000 | 1000 to 10000 | > 75 | 10 to 50
10 | Nc1ncnc2c1c(-c1ccc(Oc3ccccc3)cc1)nn2[C@@H]1CCCN(C2CCN(CC3CCN(c4ccc5c(c4)C(=O)N(C4CCC(=O)NC4=O)C5=O)CC3)CC2)C1 (stereo partly drawn) [Compound 143, 5-(4-(((R)-3-(4-amino-3-(4-phenoxyphenyl)-1H-pyrazolo[3,4-d]pyrimidin-1-yl)-[1,4′-bipiperidin]-1′-yl)methyl)piperidin-1-yl)-2-(2,6-dioxopiperidin-3-yl)isoindoline-1,3-dione] | > 10000 | > 10000 | > 90 | 10 to 50
11 | Nc1ncnc2c1c(-c1ccc(Oc3ccccc3)cc1)nn2[C@@H]1CCCN(C2CCN(CC3CCN(c4ccc5c(c4)CN(C4CCC(=O)NC4=O)C5=O)CC3)CC2)C1 (stereo partly drawn) [Compound 144, 3-(5-(4-(((R)-3-(4-amino-3-(4-phenoxyphenyl)-1H-pyrazolo[3,4-d]pyrimidin-1-yl)-[1,4′-bipiperidin]-1′-yl)methyl)piperidin-1-yl)-1-oxoisoindolin-2-yl)piperidine-2,6-dione] | > 10000 | 1000 to 10000 | > 90 | 10 to 50
12 | Nc1ncnc2c1c(-c1ccc(Oc3ccccc3)cc1)nn2[C@@H]1CCCN(C2CCN(CCC3CCN(c4ccc5c(c4)C(=O)N(C4CCC(=O)NC4=O)C5=O)CC3)CC2)C1 (stereo partly drawn) [Compound 145, 5-(4-(2-((R)-3-(4-amino-3-(4-phenoxyphenyl)-1H-pyrazolo[3,4-d]pyrimidin-1-yl)-[1,4′-bipiperidin]-1′-yl)ethyl)piperidin-1-yl)-2-(2,6-dioxopiperidin-3-yl)isoindoline-1,3-dione] | > 10000 | > 10000 | > 75 | > 50
13 | Nc1ncnc2c1c(-c1ccc(Oc3ccccc3)cc1)nn2[C@@H]1CCCN(C2CCN(CCC3CCN(c4ccc5c(c4)CN(C4CCC(=O)NC4=O)C5=O)CC3)CC2)C1 (stereo partly drawn) [Compound 146, 3-(5-(4-(2-((R)-3-(4-amino-3-(4-phenoxyphenyl)-1H-pyrazolo[3,4-d]pyrimidin-1-yl)-[1,4′-bipiperidin]-1′-yl)ethyl)piperidin-1-yl)-1-oxoisoindolin-2-yl)piperidine-2,6-dione] | > 10000 | 1000 to 10000 | > 75 | > 50

From patent publication US12139492B2 (Endotarget Inc., priority 2021, dated 2024)
